Converted amounts (≈) assume the structure as drawn. Where two headings read alike, the source gives them in different places.
Legend:
in vivo = details: mouse, intravenous, ddy strain mice, solution in 0.1 N aqueous sodium hydroxide, read-out: median lethal dose (LD50)
Description: Each test compound was intravenously administered to groups of 4 ddy strain mice (body weight: 30±1 g) each, whereby its acute toxicity was investigated. In this case, the compound was administered in the form of a solution prepared by dissolving the compound in a 0.1 N aqueous sodium hydroxide solution.

S. aureus F-137 = test: Antibacterial activity (MIC), S. aureus F-137 (β-lactamase-producing); assay type: cell-based; details: 10^6 cells/plate, 37° C., 20 hours
Description: (§1) According to the standard method of Japan Society of Chemotherapy [CHEMOTHERAPY, vol. 29, No. 1, pages 76-79 (1981)], a loopful of a cell suspension obtained by culturing in Mueller Hinton broth (mfd. by Difco) at 37° C. for 20 hours and adjusted to a concentration of 10^6 cells/plate (10^8 cells/ml) was inoculated into a Mueller Hinton agar medium (mfd. by Difco) containing the test compound, followed by incubation at 37° C. for 20 hours. […] In Table 1, *1 to *4 denote the following strains:
2: β-lactamase-producing S. aureus

S. aureus FDA209P = test: Antibacterial activity (MIC), S. aureus FDA209P; assay type: cell-based, Staphylococcus aureus
Description: (§2) According to the standard method of Japan Society of Chemotherapy [CHEMOTHERAPY, vol. 29, No. 1, pages 76-79 (1981)], a loopful of a cell suspension obtained by culturing in Mueller Hinton broth (mfd. by Difco) at 37° C. for 20 hours and adjusted to a concentration of 10^6 cells/plate (10^8 cells/ml) was inoculated into a Mueller Hinton agar medium (mfd. by Difco) containing the test compound, followed by incubation at 37° C. for 20 hours. […]

S. aureus F-597 = test: Antibacterial activity (MIC), S. aureus F-597 (methicillin-resistant); assay type: cell-based; details: Mueller Hinton agar, 10^6 cells/plate, 37° C.
Description: as §1
3: methicillin-resistant S. aureus

E. coli NIHJ JC-2 = test: Antibacterial activity (MIC), E. coli NIHJ JC-2; assay type: cell-based, Escherichia coli
Description: as §2

[1] = Staphylococcus aureus, F137, Mueller Hinton agar, read-out: MIC
[2] = Staphylococcus aureus, S. aureus FDA209P, Mueller Hinton agar, 10^6 cells/plate, 37° C., 20 hours, read-out: MIC
[3] = Staphylococcus aureus, F597, 20 h, read-out: MIC
[4] = Escherichia coli, NIHJJC2, E. coli NIHJ JC-2, Mueller Hinton agar, 10^6 cells/plate, 37° C., 20 hours, read-out: MIC

| SMILES | MIC (S. aureus F-137; [1]) [µg/mL] | MIC (S. aureus FDA209P; [2]) [µg/mL] | MIC (S. aureus F-597; [3]) [µg/mL] | MIC (E. coli NIHJ JC-2; [4]) [µg/mL] | LD50 (in vivo) [mg/kg] | MIC (S. aureus F-597; 20 hours) [µg/mL] | MIC (S. aureus F-137; Mueller Hinton agar) [µg/mL] | MIC (S. aureus FDA209P; S. aureus FDA209P, Mueller Hinton agar, 10^6 cells/plate, 37° C., 20 hours) [µg/mL] | MIC (E. coli NIHJ JC-2; E. coli NIHJ JC-2, Mueller Hinton agar, 10^6 cells/plate, 37° C., 20 hours) [µg/mL] | MIC (S. aureus FDA209P; Staphylococcus aureus, FDA209P, 20 h) [µg/mL] | MIC (E. coli NIHJ JC-2; Escherichia coli, NIHJJC2, 20 h) [µg/mL] |
| --- | --- | --- | --- | --- | --- | --- | --- | --- | --- | --- | --- |
| CC1NCc2cc(-c3ccc4c(=O)c(C(=O)O)cn(C5CC5)c4c3OC(F)F)ccc21 (racemic) [g, (±)-1-Cyclopropyl-8-difluoromethoxy-7-(1-methyliso-indolin-5-yl)-1,4-dihydro-4-oxoquinoline-3-carboxylic acid] | ≤ 0.05 | ≤ 0.05 | 0.1 (≈ 0.235 µM) | ≤ 0.05 | ≥ 200 | – | – | – | – | – | – |
| CC1NCc2cc(-c3ccc4c(=O)c(C(=O)O)cn(C5CC5)c4c3OC(F)F)ccc21 (single isomer, unassigned; (+)) [h, (+)-1-Cyclopropyl-8-difluoromethoxy-7-(1-methyliso-indolin-5-yl)-1,4-dihydro-4-oxoquinoline-3-carboxylic acid] | ≤ 0.05 | ≤ 0.05 | – | ≤ 0.05 | – | 0.2 (≈ 0.469 µM) | – | – | – | – | – |
| CC1NCc2cc(-c3ccc4c(=O)c(C(=O)O)cn(C5CC5)c4c3OC(F)F)ccc21 (single isomer, unassigned; (-)) [i, (-)-1-Cyclopropyl-8-difluoromethoxy-7-(1-methyliso-indolin-5-yl)-1,4-dihydro-4-oxoquinoline-3-carboxylic acid] | – | – | – | – | ≥ 200 | ≤ 0.05 | ≤ 0.05 | ≤ 0.05 | ≤ 0.05 | – | – |
| O=C(O)c1cn(C2CC2)c2c(OC(F)F)c(-c3ccc4c(c3)CNC4)ccc2c1=O [e, 1-Cyclopropyl-8-difluoromethoxy-7-(isoindolin-5-yl)-1,4-dihydro-4-oxoquinoline-3-carboxylic acid] | ≤ 0.05 | ≤ 0.05 | 0.1 (≈ 0.242 µM) | ≤ 0.05 | ≥ 200 | – | – | – | – | – | – |
| O=C(O)c1cn(C2CC2)c2cc(N3CCNCC3)c(F)cc2c1=O [j, 1-Cyclopropyl-6-fluoro-7-(1-piperazinyl)-1,4-dihydro-4-oxoquinoline-3-carboxylic acid, reference compound] | – | – | – | – | – | – | – | – | – | 0.2 (≈ 0.604 µM) | ≤ 0.05 |

Second part, led by results:

| MIC (S. aureus F-137; [1]) [µg/mL] | MIC (S. aureus FDA209P; [2]) [µg/mL] | MIC (S. aureus F-597; [3]) [µg/mL] | MIC (E. coli NIHJ JC-2; [4]) [µg/mL] | SMILES | LD50 (in vivo) [mg/kg] | MIC (S. aureus F-597; 20 hours) [µg/mL] | MIC (S. aureus F-137; Mueller Hinton agar) [µg/mL] | MIC (S. aureus FDA209P; S. aureus FDA209P, Mueller Hinton agar, 10^6 cells/plate, 37° C., 20 hours) [µg/mL] | MIC (E. coli NIHJ JC-2; E. coli NIHJ JC-2, Mueller Hinton agar, 10^6 cells/plate, 37° C., 20 hours) [µg/mL] | MIC (S. aureus FDA209P; Staphylococcus aureus, FDA209P, 20 h) [µg/mL] | MIC (E. coli NIHJ JC-2; Escherichia coli, NIHJJC2, 20 h) [µg/mL] |
| --- | --- | --- | --- | --- | --- | --- | --- | --- | --- | --- | --- |
| ≤ 0.05 | ≤ 0.05 | 0.1 (≈ 0.277 µM) | ≤ 0.05 | Cc1c(-c2ccc3c(c2)CNC3)ccc2c(=O)c(C(=O)O)cn(C3CC3)c12 [a, 1-Cyclopropyl-7-(isoindolin-5-yl)-8-methyl-1,4-dihydro-4-oxoquinoline-3-carboxylic acid] | – | – | – | – | – | – | – |
| ≤ 0.05 | ≤ 0.05 | ≤ 0.05 | ≤ 0.05 | Cc1c(-c2cc(F)c3c(c2)CNC3)ccc2c(=O)c(C(=O)O)cn(C3CC3)c12 [b, 1-Cyclopropyl-7-(7-fluoroisoindolin-5-yl)-8-methyl-1,4-dihydro-4-oxoquinoline-3-carboxylic acid] | – | – | – | – | – | – | – |
| ≤ 0.05 | ≤ 0.05 | 0.1 (≈ 0.266 µM) | ≤ 0.05 | COc1c(-c2ccc3c(c2)CNC3)ccc2c(=O)c(C(=O)O)cn(C3CC3)c12 [c, 1-Cyclopropyl-7-(isoindolin-5-yl)-8-methoxy-1,4-dihydro-4-oxoquinoline-3-carboxylic acid] | – | – | – | – | – | – | – |
| ≤ 0.05 | ≤ 0.05 | ≤ 0.05 | ≤ 0.05 | COc1c(-c2cc(F)c3c(c2)CNC3)ccc2c(=O)c(C(=O)O)cn(C3CC3)c12 [d, 1-Cyclopropyl-7-(7-fluoroisoindolin-5-yl)-8-methoxy-1,4-dihydro-4-oxoquinoline-3-carboxylic acid] | – | – | – | – | – | – | – |
| ≤ 0.05 | ≤ 0.05 | ≤ 0.05 | ≤ 0.05 | O=C(O)c1cn(C2CC2)c2c(OC(F)F)c(-c3cc(F)c4c(c3)CNC4)ccc2c1=O [f, 1-Cyclopropyl-8-difluoromethoxy-7-(7-fluoroiso-indolin-5-yl)-1,4-dihydro-4-oxoquinoline-3-carboxylic acid] | – | – | – | – | – | – | – |
